Source: US7045600B2, “Modification of collagenous materials and medical treatment, diagnosis and monitoring of fibrotic conditions” (Nederlandse Organisatie voor …, priority 1999, dated 2006)

How the values were obtained:
[1] = tested on: helical lysyl hydroxylase; details: cited from earlier work
PLOD2B mRNA [2] = experiment: PLOD2B mRNA levels by real-time PCR in minoxidil-treated human skin fibroblasts and myofibroblasts; type: cell-based; details: 1 mM minoxidil, 41 hours, versus untreated (FIG. 8)
Procedure: To substantiate that minoxidil suppresses the expression of PLOD2, human skin fibroblasts and myofibroblasts were cultured in 25 cm^2 flasks in DMEM (Gibco) supplemented with 10% FBS in 5% CO2. At near confluency the fibroblasts and myofibroblasts were incubated for 41 hours in medium containing 1 mM minoxidil. Minoxidil was dissolved at room temperature in medium with 10% FBS for 8 hours which was filtered prior to use. As a control both cell types were incubated for 41 hours in medium without minoxidil. At the end of the incubation period, the cells were washed with PBS and lysed with 600 μl RLT-buffer (RNeasy kit, Qiagen). RNA was isolated following the manufacturers protocol and subsequently reverse transcribed into cDNA (first strand cDNA synthesis kit, Roche Molecular Biochemicals). The levels of PLOD2B mRNA in the untreated and minoxidil-treated cells were quantified using real-time PCR as described in example 8. […]
Real time PCR amplification of PLOD2 and β2-microglobulin was performed, using specific primers (PLOD2 forward primer: 5′ […] 3′ (SEQ ID NO:48) PLOD2 reverse primer: 5′ […] 3′ (SEQ ID NO:49)β2-microglobulin forward primer; 5′ […] 3 (SEQ ID NO:50)β32-microglobulin reverse primer 5′ […] 3′) (SEQ ID NO:51) and specific molecular beacons PLOD2: 5′ FAM-cgtgcg[…] […] Data was analysed using sequence detector V1.7 software.

[3] = tested on: lysyl hydroxylation level of the telopeptides (pyridinoline cross-links) in chondrocytes; experiment: Pyridinoline (HP and LP) cross-links in collagen from calf chondrocytes cultured in alginate beads with minoxidil; type: cell-based, calves; details: culture period of 20–50 days
Procedure: Chondrocytes from the metacarpophalangeal joint of calves (12–14 months old, local slaughterhouse) were isolated by collagenase digestion: cartilage slices were minced and digested overnight at 37° C. in 0.14% (w/v) collagenase (Worthington CLS2) in Dulbecco's modified Eagle's medium (DMEM). After filtration of the suspension, cells were washed suspended in 1.2% (w/v) alginate (Keltone LVCR) in 0.9% NaCI at a density of 4×10^6 cells/ml, which was passed dropwise through a 22-gauge needle into 102 mM CaCl2. After 10 min of polymerization, beads were washed in 0.9% (w/v) NaCl (three times) and finally in complete medium: DMEM-Glutamax (Gibco BRL) supplemented with 100 U/ml of penicillin/streptomycin, 10% (v/v) foetal calf serum and 50 μg/ml ascorbic acid. The cells were cultured at 10 beads per 0.5 ml medium in a humid atmosphere of 5% CO2 in air at 37° C.; the medium was refreshed twice weekly. Minoxidil was dissolved in complete medium and added to the culture after 7 days of preculture under control conditions. Harvested beads were washed with 0.9% NaCl containing 10 mM CaCl2 and hydrolyzed in 900 μl 6 M HCl at 108° C. for 20–24 h. […] Based on hydroxyproline levels, amounts of collagen were calculated, assuming 300 hydroxyproline residues/triple helix. […] Crosslinks were expressed as amount of residues per collagen molecule.

PLOD2B mRNA [4] = experiment: PLOD2B mRNA levels by real-time PCR in TGF-β-treated human skin fibroblasts; type: cell-based; details: for increase of PLOD2B mRNA levels: human skin fibroblasts, 1, 5 or 10 nM, 50 hours, versus untreated (FIG. 9)
Procedure: Human skin fibroblasts were cultured in 25 cm^2 flasks in DMEM (Gibco) supplemented with 10% FBS in 5% CO2. At near confluency the fibroblasts and myofibroblasts were incubated for 50 hours in medium containing 1, 5 or 10 nM human recombinant TGF-β1, -β2 or -β3. As a control, human skin fibroblasts were incubated for 50 hours in medium without the addition of TGF-β. At the end of the incubation period, the cells were washed with PBS and lysed with 600 μl RLT-buffer (RNeasy kit, Qiagen). RNA was isolated following the manufacturers protocol and subsequently reverse transcribed into cDNA (first strand cDNA synthesis kit, Roche Molecular Biochemicals). The levels of PLOD2B mRNA in the untreated and TGF-β treated cells were quantified using real-time PCR as described in example 8.
RNA, obtained from cultured human skin fibroblasts and cultured human myofibroblast, was isolated using the RNeasy kit (Qiagen). To remove any genomic DNA in the RNA sample, a Dnase treatment was carried out, using RQ1 Rnase-free Dnase (Promega). RNA was then reverse transcripted into cDNA and subjected to real time PCR amplification.
Real time PCR amplification of PLOD2 and β2-microglobulin was performed, using specific primers (PLOD2 forward primer: 5′ […] 3′ (SEQ ID NO:48) PLOD2 reverse primer: 5′ […] 3′ (SEQ ID NO:49)β2-microglobulin forward primer; 5′ […] 3 (SEQ ID NO:50)β32-microglobulin reverse primer 5′ […] 3′) (SEQ ID NO:51) and specific molecular beacons PLOD2: 5′ FAM-cgtgcg[…] (SEQ ID NO:52) cgcacg-DABCYL 3 ′; β2-microglobulin: 5′HEX-cgtgc[…] (SEQ ID NO:53) gcacg-DABCYL 3′). PLOD2 was amplified in a multiplex PCR together with β2-microglobulin in a total reaction volume of 25μl, containing 1×PCR buffer (Applied Biosystems), 0.4 mM of each dNTP, 3.5 mM Mg^2+, 250 nM of each target primer, 100 nM of each primer for μ2microglobulin and 1 unit Amplitaq Gold polymerase (Applied Biosystems). PCR was performed in a ABI PRISM® 7700 Sequence Detection System and consisted of a 5 minute interval at 95° C., followed by 40 cycles of 95° C. for 30 seconds, 56° C. for 40 seconds and 72° C. for 30 seconds. Data was analysed using sequence detector V1.7 software.

## CCOC(=O)CC(SP(=O)(OC)OC)C(=O)OCC (stereo not shown) [malaoxon]
[1]
  helical lysyl hydroxylase inhibition: inhibit

## CCOC(=O)CC(SP(=S)(OC)OC)C(=O)OCC (stereo not shown) [malathion]
[1]
  helical lysyl hydroxylase inhibition: inhibit

## Nc1cc(N2CCCCC2)nc(N)[n+]1[O-] [minoxidil]
PLOD2B mRNA [2]; human myofibroblasts
  reduction of PLOD2B mRNA levels: about 15 fold
PLOD2B mRNA [2]; human skin fibroblasts
  reduction of PLOD2B mRNA levels: 4 fold
[3]; alginate beads cultured with 0.3 mM minoxidil
  amount of pyridinolines (HP and LP), mean: 0.38 residues/collagen molecule
[3]; alginate beads cultured with 1.0 mM or 2.0 mM minoxidil
  amount of pyridinolines (HP and LP), mean: around 0.15 residues/collagen molecule

## TGF-β
PLOD2B mRNA [4]; fibroblasts, TGF-β added to the culture medium
  expression of PLOD2B (FIG. 9 legend, in words): increased

## TGF-β1: human recombinant TGF-β1
PLOD2B mRNA [4]
  increase of PLOD2B mRNA levels: about 20 fold

B1: TGF-β3: human recombinant TGF-β3 (protein, UniProt P10600 301-412, looked up)
Transforming growth factor …: ALDTNYCFRNLEENCCVRPLYIDFRQDLGWKWVHEPKGYYANFCSGPCPYLRSADTTHSTVLGLYNTLNPEASASPCCVPQDLEPLTILYYVGRTPKVEQLSNMVVKSCKCS
PLOD2B mRNA [4]
  increase of PLOD2B mRNA levels: about 20 fold

B2: TGF-β2: human recombinant TGF-β2 (protein, UniProt P61812 303-414, looked up)
Transforming growth factor …: ALDAAYCFRNVQDNCCLRPLYIDFKRDLGWKWIHEPKGYNANFCAGACPYLWSSDTQHSRVLSLYNTINPEASASPCCVSQDLEPLTILYYIGKTPKIEQLSNMIVKSCKCS
PLOD2B mRNA [4]
  increase of PLOD2B mRNA levels: about 20 fold
